This note sets out measurements from US6455541B1, “Suppression, by 5-lipoxygenase inhibitors, of bone resorption” (Board of Regents, The University of Texas System, priority 1994, dated 2002).

One assay has as its system C433 cells. Description: Production of osteoclast-stimulating activity by C433 cells (conditioned medium bioassayed for TRAP in avian osteoclasts). The settings on record: flurbiprofen 10^−5 M; indomethacin 10^−6 M; nordihydroguaiaretic acid 10^−6, 10^−5 or 10^−4 M. Format: cell-based, human. The method, then:
FIG. 3A, FIG. 3B, FIG. 3C and FIG. 3D. Chemical characterization of activity. FIG. 3A. C433-conditioned medium was treated with ultraviolet-light (UV) for 24 h or placed in a boiling water bath (100° C.) for 15 min and bioassayed. FIG. 3B. amino peptidase M (A), carboxypeptidase (C), or Pronase-CB (P) were incubated in the presence of C433-conditioned medium for 12 h at 37° C. FIG. 3C. […] The resultant conditioned medium was bioassayed for activity. FIG. 3D. […] Conditioned medium was bioassayed for induction of TRAP activity in avian osteoclasts.
C433 cells were grown in 10% fetal bovine serum (Whittaker, Walkersville, Md.) 50% RPMI, 50% McCoys (Flow, McLean, Va.) until a density of 10^4 cells/ml was obtained, at which time the cells were harvested, washed, and placed in serum-free DMEM plus 10^−8 M, 1,25-(OH)2D3 for 48 h before harvest of conditioned medium. […] This conditioned medium was applied to a prewetted C18 Sep-Pak (Millipore, Waters, Milford, Mass.), and bound material was extracted using ethyl acetate. This material was dried under nitrogen and resuspended in water, it acetic acid and analyzed by high pressure measure liquid chromatography (HPLC) (Waters, Milford, Mass.) applied to a C8 semipreparative 25 cm×10 mm reverse phase column (Keystone Scientific, Inc., Bellefonte, Pa.) at 2 ml/min. The gradient was 0-100% methanol, 1% acetic acid over 60 min with 6-ml fractions collected. The fractions were dried under nitrogen, and those fractions to be assayed for osteoclast stimulating activity were stabilized with 20 μl of 10% bovine serum albumin. Fractions to be used for gas chromatography-mass spectrometric analysis were prepared for derivatization.

For a further assay, the system named is neonatal mouse calvariae. Description: Neonatal mouse (murine) calvarial assay, 45Ca release. The class given is cell-based. The settings on record: for 45Ca release, Factor alone (Table II): IL-1 5 × 10^−10M, TNF 2 × 10^−10M, Lymphotoxin 5 × 10^−9M, PTH 4 ng/ml. As to the method:
The assay was performed as described by Gowen et al. (1983). Timed pregnant mice were injected with ^45Ca 2 days before parturition. Half-calvaria were removed from the 1-2-day-old pups and preincubated for 24 h in BGJb medium at 37° C. in a humidified atmosphere of 5% CO2 before transfer to fresh media with or without test substances for 48 h. The bones were incubated for a further 72 h and media and bones collected. Bone-resorbing activity was expressed as the percentage of the total ^45Ca released into the medium.

Assay [1] concerns isolated avian osteoclasts. Description: TRAP activity in isolated avian osteoclasts. Format: cell-based, Gallus domesticus. The settings on record: 10^−8 M stimulates suboptimally. As to the method:
Avian osteoclasts were isolated from medullary bone of laying White Leghorn hens Gallus domesticus (Pioneer Animal Supply, Kingswheel, Ohio) as described previously by Zambonin-Zallone and Teti (1981). In brief, bone marrow suspensions from the medullary bone of femora were filtered through Nytex cloth (110 μm, t'etko, Elmsford, N.Y.), centrifuged for 5 min at 1200 rpm, and the cell pellet resuspended in 0.2% NaCl for 3 min to lyse erythrocytes. After layering the cells on 100% fetal bovine serum for 1 h, sedimented cells were further filtered through Nytex filters (55 μm). Cells were harvested, resuspended in α-minimal Eagle's medium (GIBCO) containing 10 fetal bovine serum, with penicillin (100 units/ml), streptomycin (100 μg/ml), and Ara-C, to inhibit proliferation of nonosteoclastic cells. Cells were plated in 24- or 48-well plates (Costar, Cambridge, Mass.) at 1×10^4 cells/well and incubated at 37° C. in 10% CO2 humidified air for 48 h, after which they were washed to remove nonadherent cells. When matured osteoclasts were observed experiments were begun and terminated within 48 h.
Osteoclast TRAP activity was measured using fluorescence spectroscopy as described by Chambers et al. (1987) with minor modifications. In brief, media from osteoclast cultures were harvested and stored at −70° C. until ready for assay.
The cells were washed with phosphate-buffered saline and harvested in 0.5 ml of Triton X-100 (0.05%, w/v). Aliquots of media or lysate 30 μl) were incubated with 170 μl of 2 mM methylumbelliferyl phosphate, pH 5.0, in 0.48 M acetate buffer (0.48 M sodium acetate, 0.48 M acetic acid, pH 5.0) and 30 mM tartaric acid. Samples were incubated for 30 min at 37° C. and the reaction terminated with 100 μl of stop solution containing 50 mM glycine, 50 mM EDTA, pH 10.4. Fluorescence was measured at excitation 360 nm and emission 448 nm using a fluorimeter (Fluoroskan, Flow Instruments). Enzyme activity was expressed as micromoles of methylumbelliferyl phosphate hydrolyzed/min/μg of protein and the protein content measured by the technique of Lowry et al. (1951).

The test system of a further assay is isolated rat osteoclasts. Description: Disaggregated rat osteoclast pit formation assay on sperm whale dentine. Format: cell-based. The method, then:
Quantitation of the effects of isolated osteoclasts on calcified matrices was determined using minor modifications of the disaggregated osteoclast resorption assay as described by Boyde et al. (1984). Sperm whale dentine (0.25×7×7 mm) was prepared using a Buehler low speed diamond saw (Buehler, Lake Bluff, Ill.) followed by sonication (15 min) in several changes of distilled water. Slices were sterilized using ultraviolet light.
Neonatal Sprague-Dawley rats (2-3 days) were sacrificed by decapitation, the femurs and tibias were removed, scraped free of adherent tissue, and trimmed free of the epiphyses. The bones from one litter were combined and quickly minced using a scalpel blade in 2 ml of 199 medium and then vigorously mixed with a pipette in an 8-ml tube, allowed to settle for 10 s, and then 100 μl of the suspension was added to each well for a total of 16 wells in a 48-well microtiter plate containing sperm whale dentine (approximately four neonates are used per 16 wells). The cells were incubated at 37° C. for 30 min at which time the dentine was removed, washed in media, and placed in a fresh 48-well plate containing 250 μl of test medium.
Osteoclasts were stained for TRAP and counted and then pit numbers were counted following toluidine blue (0.1% w/v) staining by light microscopy. The plan area of matrix resorbed was quantitated using a computer-assisted morphometric program on a Bioquant System IV analysis system (R & M Biometrics, Nashville, Tenn.).
Quantitation of the effects of isolated neonatal rat osteoclasts on calcified matrices was determined using minor modifications of the disaggregated osteoclast resorption assay as described by Boyde et al (1984). Briefly rat osteoclasts isolated as described by Chambers et al. (1983) were dispersed on prewetted (AMEM plus 5% FBS) slices of sperm whale dentine. Cultures were performed in 48 well-microtiter plates in humidified air (10% CO2) at 37° C. in αMEM medium (one slice/well in 200 μl medium). Numbers of osteoclasts and resorption lacunae were quantitated as described above for the avian osteoclasts.

Setting [2] is: 1,25D3 10^−10M + MK886 2.5 μg/ml.
The mark [3] stands for this setting: IL-1 1 × 10^−10M + MK886 2.5 μg/ml.

Several values for one entry are separate records, joined by “and”; a condition that tells them apart may be missing. Equal entries are not always repeated.

On to `CC(C(=O)O)c1ccc(-c2ccccc2)c(F)c1` (centres unmarked) [Flurbiprofen, flurbiprofen], for which the “effect on production of C433 activity” value in the assay on C433 cells was “no significant effects”.

Turning to `CCCCC/C=C\C[C@@H](O)/C=C/C=C/C=C\[C@@H](O)CCCC(=O)O` [LTB4], in the assay on neonatal mouse calvariae, the “stimulation of bone resorption in neonatal mouse calvariae (in words)” value was “found to stimulate osteoclastic bone resorption”. Further, the “concentration showing statistically significant resorption stimulation” value with neonatal mouse calvariae (dose response, FIG. 8C) is recorded as 10^−8 to 10^−6 M.

On to `CCCCC/C=C\C\C=C/C=C/C=C/[C@@H](SC[C@H](N)C(=O)NCC(=O)O)[C@@H](O)CCCC(=O)O` [LTD4, leukotriene D4], for which the “concentration of optimal stimulation of TRAP activity” value in assay [1] is 10^−10 M.

For the molecule `CCCCC/C=C\C\C=C/C=C/C=C/[C@@H](SC[C@H](N)C(=O)O)[C@@H](O)CCCC(=O)O` [LTE4, leukotriene E4], the “stimulation of pit formation” value with isolated rat osteoclasts (10^−10 M) is “stimulated”.

As for `CC(C)c1ccc2c(c1)c(SC(C)(C)C)c(CC(C)(C)C(=O)O)n2Cc1ccc(Cl)cc1` [MK886], the “inhibition of 1,25(OH)2 vitamin D3-induced bone resorption (in words)” value in the assay on neonatal mouse calvariae (1,25(OH)2 vitamin D3 as factor) is listed as “significantly inhibited”. In addition, the “45Ca release, factor + MK886” value in the assay on neonatal mouse calvariae (setting [2]) is given as 32.1%; with neonatal mouse calvariae (setting [3]) it was 34.9%. Also, the “% Inhibition” value in the assay with neonatal mouse calvariae (setting [2]) is 23.4%; in the assay on neonatal mouse calvariae (AAY4 LPS 25 μg/ml + MK886), 20.9%; with neonatal mouse calvariae (setting [3]), 23.0%; with neonatal mouse calvariae (WR14 LPS 50 ng/ml + MK886) it was 8.2%. The results for the “Ca^45 Release, LPS + MK886” value in the assay on neonatal mouse calvariae (AAY4 LPS 25 μg/ml + MK886 (concentration not given)) and with neonatal mouse calvariae (WR14 LPS 50 ng/ml + MK886 (concentration not given)) were 22.6% and 32.8%, respectively. In addition, the “inhibition of LPS-induced bone resorption (in words)” value in the assay on neonatal mouse calvariae (AaY4 LPS and/or WR14 LPS) was “only mildly inhibited”. Also, the “inhibition of IL-1-induced bone resorption (in words)” value in the assay with neonatal mouse calvariae (IL-1 as factor) is on record as “significant inhibition of Interleukin-1 induced bone resorption was not noted”. For the same molecule, in the assay on neonatal mouse calvariae (MK886 2.5 μg/ml, no factor), the “45Ca release, MK886 alone” value was 9.6% and 14.2%. Moreover, the “inhibition of PTH and PTHrP-induced bone resorption” value in the assay on isolated rat osteoclasts (NDGA 10^−6M, MK886 1 μg/ml, ZM 230,487 10 ng/ml, 20 hours) is “inhibition of the bone resorption was seen”. The “order of inhibitory effectiveness” value in the assay with isolated rat osteoclasts (PTH and PTHrP-induced bone resorption, NDGA 10^−6M, MK886 1 μg/ml, ZM 230,487 10 ng/ml) is on record as “ZM230487>MK886>NDGA”.

For `COc1ccc2c(c1)c(CC(=O)O)c(C)n2C(=O)c1ccc(Cl)cc1` [indomethacin], the “effect on production of C433 activity” value in the assay on C433 cells is on record as “no significant effects”.

Take “IL-1: interleukin-1, bone resorbing factor”: the “45Ca release, factor alone (Table IV)” value with neonatal mouse calvariae (1,25D3 10^−10M, IL-1 1 × 10^−10M) came out at 38.9%. Besides, the “45Ca release, Factor alone (Table II)” value in the assay with neonatal mouse calvariae (1,25D3 10^−10M) was 27.7% and 31.2%. Further, the “45Ca release, Factor alone (Table VII)” value with neonatal mouse calvariae (IL-1β 5 × 10^−10M, TNF 5 × 10^−10M, LPS WR14 50 ng/ml) was 32.0%.

B1: PTH: parathyroid hormone (protein, UniProt P01270 32-115, looked up)
Parathyroid hormone: SVSEIQLMHNLGKHLNSMERVEWLRKKLQDVHNFVALGAPLAPRDAGSQRPRKKEDNVLVESHEKSLGEADKADVNVLTKAKSQ
modifications: Parathyroid hormone
Consider B1, for which, in the assay with neonatal mouse calvariae (1,25D3 10^−10M), the “45Ca release, Factor alone (Table II)” value is 37.0% and 39.9% and 29.8%. Also, the “% Total Calcium Released, PTH alone (Table VI)” value in the assay on neonatal mouse calvariae (PTH 10 ng/ml) is 30.5 ± 2.4%.

B2: Lymphotoxin: bone resorbing factor (protein, UniProt P01374 35-205, looked up)
Lymphotoxin-alpha: LPGVGLTPSAAQTARQHPKMHLAHSTLKPAAHLIGDPSKQNSLLWRANTDRAFLQDGFSLSNNSLLVPTSGIYFVYSQVVFSGKAYSPKATSSPLYLAHEVQLFSSQYPFHVPLLSSQKMVYPGLQEPWLHSMYHGAAFQLTQGDQLSTHTDGIPHLVLSPSTVFFGAFAL
With B2, the “45Ca release, Factor alone (Table II)” value in the assay on neonatal mouse calvariae (1,25D3 10^−10M) is 35.0% and 42.8%.
